One experiment addresses CB1-PGS (Homo sapiens, UniProt P21554, DEL304-332/H302F/INS301[…]). Briefly: Differential scanning fluorimetry on detergent-solubilized receptor. Conditions: 10 μM ligand.
The next experiment addresses CB1. Also on record: method as in PMID 17327489. To be noted: cited from earlier work.
The next experiment has as its target CB2. Also on record: method as in PMID 17327489. Conditions: cited from earlier work.

As usually defined, the Ki is the dissociation constant of the complex between target and ligand, obtained from inhibition or displacement.

CB1-PGS, sequence (P21554 with tags, fused parts or gaps INS301[withheld]/H302F/DEL304-332): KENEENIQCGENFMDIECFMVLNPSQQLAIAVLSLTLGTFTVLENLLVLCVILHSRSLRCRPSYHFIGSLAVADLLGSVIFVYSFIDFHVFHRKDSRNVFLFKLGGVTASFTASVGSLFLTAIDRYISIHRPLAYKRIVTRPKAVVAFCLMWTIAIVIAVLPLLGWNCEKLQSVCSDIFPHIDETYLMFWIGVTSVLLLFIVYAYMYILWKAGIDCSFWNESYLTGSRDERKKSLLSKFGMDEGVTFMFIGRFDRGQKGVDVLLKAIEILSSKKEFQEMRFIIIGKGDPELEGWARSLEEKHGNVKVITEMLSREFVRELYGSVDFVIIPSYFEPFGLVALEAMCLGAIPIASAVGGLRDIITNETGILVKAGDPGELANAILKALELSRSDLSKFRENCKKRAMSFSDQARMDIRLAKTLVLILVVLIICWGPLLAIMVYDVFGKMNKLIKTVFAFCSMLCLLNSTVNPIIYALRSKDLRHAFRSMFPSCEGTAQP
Description for CB1-PGS: Differential Scanning Fluorimetry (DSF) assays were performed in 96-well PCR plates using an RT-PCR machine (CFX96, Bio-Rad). Standard assay conditions (25 μL) were 25mM HEPES pH 7.5, 150 mM NaCl, 0.01% LMNG, 0.002% CHS and 10 μM corresponding ligands. The protein concentration was 2 μM and the BODIPY FL-L-cystine dye[38] was added at 2 μM final. All reactions were incubated at 4°C for 20 min before scanning in the PCR machine. The fluorescence was measured at 0.5°C temperature intervals from 4°C to 90°C by using the FAM filter set (450–490 nm excitation, 515–530 nm emission).

`C[C@H](NC(=O)C(C)(C)Oc1ccc(C(F)(F)F)cn1)[C@@H](Cc1ccc(Cl)cc1)c1cccc(C#N)c1` [taranabant, N-[(1S,2S)-3-(4-chlorophenyl)-2-(3-cyanophenyl)-1-methylpropyl]-2-methyl-2-{[5-(trifluoromethyl)pyridin-2-yl]oxy}propanamide]: at CB1-PGS, the “effect on receptor thermostability (DSF)” value was “enhanced thermostability”. Besides, the Ki on CB1 is 0.13 nM; on CB2, 170 nM.

Source of the values: article PMC5433929, “High-resolution crystal structure of the human CB1 cannabinoid receptor” (Nature, 2016).
